Laboratory results taken from article PMC12390684 (Viruses, 2025).
pEC50, pIC50: −log10 of the molar value. Like-named read-outs stand apart in the source and are kept apart here.

Assays:
[1] = Cytotoxicity (CellTiter 96 AQueous); format: cell-based; conditions: human
[2] = biological target: IN-GCN2 interaction (6xHis-IN / GST-GCN2) (UniProt P04585+Q9P2K8); assay: biochemical; format: binding, HIV-1 IN; human GCN2; conditions: for pIC50: IC50, inhibition of IN-GCN2 interaction; for IN-GCN2 interaction (%): screen, single dose 100 µM, single replicate, residual AlphaLISA signal normalized to DMSO control
HIV-1Laï = assay: microbe, parasite or virus in culture; format: cell-based; conditions: for nontoxic concentrations at which a proviral effect was seen: Figure S5; for SI (CC50/EC50): selectivity index; for viral replication, maximum, relative to DMSO control: dose-dependent increase (pro-viral effect)
HIV-1 IN [3] = biological target: T1, HIV-1 IN (Human immunodeficiency virus type 1 group M subtype B, UniProt P04585); conditions: cited from earlier work
HIV-1 IN [4] = biological target: T1, HIV-1 IN; assay: Strand transfer (ST) gel-based assay; format: biochemical
[5] = SAR study, fresh dilutions from powder, at least three independent experiments
[6] = Human immunodeficiency virus 1, MAGI, 24 h, 24 h infection, read-out: EC50
[7] = P4 MAGI CCR5+ cells, 24 h, read-out: CC50
[8] = plated compounds of the screen, dose-response 100 µM to 46 nM (Figure 1B), n = 9
[9] = Human immunodeficiency virus 1, MAGI, 24 h infection, read-out: EC50

IN-GCN2 interaction (6xHis-IN / GST-GCN2), sequence (Q9P2K8 192-1024, other chains not shown): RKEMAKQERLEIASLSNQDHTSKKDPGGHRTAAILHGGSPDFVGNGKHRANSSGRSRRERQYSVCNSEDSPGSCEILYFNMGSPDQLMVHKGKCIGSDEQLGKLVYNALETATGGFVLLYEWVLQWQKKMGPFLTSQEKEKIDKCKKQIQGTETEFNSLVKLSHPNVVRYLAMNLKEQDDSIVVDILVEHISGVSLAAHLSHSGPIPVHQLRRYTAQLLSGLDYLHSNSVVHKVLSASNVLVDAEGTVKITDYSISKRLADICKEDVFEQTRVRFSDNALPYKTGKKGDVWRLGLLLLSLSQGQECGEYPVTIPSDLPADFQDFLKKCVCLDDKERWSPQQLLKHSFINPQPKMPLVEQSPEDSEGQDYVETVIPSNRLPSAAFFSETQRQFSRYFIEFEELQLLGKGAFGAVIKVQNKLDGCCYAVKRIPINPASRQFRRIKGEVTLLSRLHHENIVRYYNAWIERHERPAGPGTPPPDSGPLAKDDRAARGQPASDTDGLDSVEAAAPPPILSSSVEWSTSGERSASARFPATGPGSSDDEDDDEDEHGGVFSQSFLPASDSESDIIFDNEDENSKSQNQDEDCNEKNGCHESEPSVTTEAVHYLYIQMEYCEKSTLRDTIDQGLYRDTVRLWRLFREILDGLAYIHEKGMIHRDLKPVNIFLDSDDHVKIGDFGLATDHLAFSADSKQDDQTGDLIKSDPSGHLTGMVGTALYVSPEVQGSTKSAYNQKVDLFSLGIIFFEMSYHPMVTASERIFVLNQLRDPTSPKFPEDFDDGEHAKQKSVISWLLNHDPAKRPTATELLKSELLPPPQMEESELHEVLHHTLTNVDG

Compound | CC50 at 24 h [1] | pIC50 [2, 5] | pEC50 (HIV-1Laï; [6]) | further results
CCCCCC1=C/C(=C/c2[nH]c(-c3ccc[nH]3)cc2OC)N=C1C [NSC47147, prodigiosin] | – | – | – | CC50 at 24 h ([1]; 24 h, read-out: CC50): 1.96 µM; pIC50 ([2]; plated compounds of the screen, dose-response (Figure 1B), n = 9): 6.06; IN-GCN2 interaction (%) [2]: 6.31%; nontoxic concentrations at which a proviral effect was seen (HIV-1Laï): < 200 nM
COc1cccc2c1C(=O)c1c(O)c3c(c(O)c1C2=O)CC(O)(C(C)=O)CC3OC1CC(N)C(OC2CC(O)C(O)C(C)O2)C(C)O1 (stereo not drawn) [Compound 1h] | > 5 µM | 5.19 | 5.78 | SI (CC50/EC50) (HIV-1Laï): >3
COc1cccc2c1C(=O)c1c(O)c3c(c(O)c1C2=O)CC(O)(C(=O)CO)CC3OC1CC(N(C)C)C(O)C(C)O1 (stereo not drawn) [Compound 1r] | 0.225 µM | < 4.00 | – | inhibition of IN in vitro, in words (HIV-1 IN [3]): micromolar inhibitors
O=C1c2c(O)ccc(O)c2C(=O)c2c(NCCCCO)ccc(NCCCCO)c21 [Compound 2i] | – | 4.95 | < 5.30 | CC50 at 24 h [1, 7]: > 5 µM
COc1cccc2c1C(=O)c1c(O)c3c(c(O)c1C2=O)CC(O)(C(C)=O)CC3OC1CC([N+](C)(C)C)C(O)C(C)O1 (stereo not drawn) [Compound 1q] | – | 4.12 | < 5.30 | CC50 ([1]; 24 h, read-out: CC50): > 5 µM
CCCCC1CCCCCCc2[nH]c(C=C3N=C(c4ccc[nH]4)C=C3OC)cc21 (stereo not drawn) [NSC247562] | – | – | – | CC50 ([1]; 24 h, read-out: CC50): 3.85 µM; pIC50 [2, 8]: 5.84; IN-GCN2 interaction (%) [2]: 8.97%; nontoxic concentrations at which a proviral effect was seen (HIV-1Laï): < 200 nM
N#CCCNc1ccc(NCCC#N)c2c1C(=O)c1c(O)ccc(O)c1C2=O [Compound 2m] | – | 4.80 | < 5.30 | CC50 at 24 h [1, 7]: > 5 µM
O=C1c2c(O)ccc(O)c2C(=O)c2c(NCCCO)ccc(NCCCO)c21 [Compound 2l] | – | 4.89 | < 5.30 | CC50 at 24 h [1, 7]: > 5 µM
S=c1[nH]c2ccccc2nc1NCc1ccccc1 [Compound 3f] | – | 4.08 | 5.62 | CC50 at 24 h [1, 7]: > 5 µM; pEC50 (HIV-1Laï; 24 h infection, read-out: EC50): 5.63; SI (CC50/EC50) (HIV-1Laï): >2.1
CC(=O)Nc1ccc(Nc2ccc(NCCO)c3c2C(=O)c2c(O)ccc(O)c2C3=O)cc1 [Compound 2h] | – | 4.97 | < 5.30 | CC50 at 24 h [1, 7]: > 5 µM
CCC1(O)CC(OC2CC(N(C)C)C(O)C(C)O2)c2c(cc3c(c2O)C(=O)c2c(O)cccc2C3=O)C1C(=O)OC (stereo not drawn) [Compound 1f] | – | 5.49 | – | CC50 ([1]; 24 h, read-out: CC50): 2.35 µM; IN-GCN2 interaction (%) [2]: 43.80%; pEC50 (HIV-1Laï; [9]): 5.86
O=C1c2c(O)ccc(O)c2C(=O)c2c(NCCO)ccc(NCCO)c21 [Compound 2e] | > 5 µM | 5.36 | < 5.30 | –
COc1cc(OC)c2c(O)c3c(c(-c4ccc5cc6c(c(O)c5c4O)C(=O)CC(C)(O)C6)c2c1)CC(C)OC3C (stereo not drawn) [Compound 2b, Karwinskia toxin T-544] | – | – | < 5.30 | CC50 at 24 h ([1]; 24 h, read-out: CC50): > 5 µM; pIC50 (HIV-1 IN [3]; read-out: IC50, inhibition of both 3′-P and ST): 4.68
CCCCCCCC(=O)OCC(=O)C1(O)Cc2c(O)c3c(c(O)c2C(OC2CC(N)C(O)C(C)O2)C1)C(=O)c1c(OC)cccc1C3=O (stereo not drawn) [Compound 1g, adriamycin octanoate] | – | 5.40 | 6.68 | CC50 ([1]; 24 h, read-out: CC50): 1.67 µM; SI (CC50/EC50) (HIV-1Laï): 7.9; SI (CC50/EC50) (HIV-1Laï; listed as NSC149584): > 10.1
CCOC(=O)N1CCc2cc(OC)c(OC)c3c2c1cc1cc(OC)c(OC)cc13 [Compound 3d] | – | 4.15 | 6.00 | CC50 at 24 h [1, 7]: > 5 µM; effect on HIV replication, in words (HIV-1Laï): decrease in viral replication; pEC50 (HIV-1Laï; 24 h infection, read-out: EC50): 5.99; SI (CC50/EC50) (HIV-1Laï): >4.9
CCC1(O)CC(OC2CC(N(C)C)C(OC3CC4OC5CC(=O)C(C)OC5OC4C(C)O3)C(C)O2)c2c(cc3c(c2O)C(=O)c2c(O)ccc(O)c2C3=O)C1C(=O)OC (stereo not drawn) [Compound 1a, cinerubin B] | – | – | – | CC50 ([1]; 24 h, read-out: CC50): > 5 µM; pEC50 (HIV-1Laï; [9]): 6.31
COc1cc2c(cc1OC)-c1c3c(cc4c1C(C2)N(C)CC4)OCO3 (stereo not drawn) [Compound 3g] | – | 4.04 | – | viral replication, maximum, relative to DMSO control (HIV-1Laï): up to 150%
COc1ccc2c(c1)CC1c3c(cc4c(c3-2)OCO4)CCN1C (stereo not drawn) [Compound 3h] | – | < 4.00 | – | CC50 ([1]; 24 h, read-out: CC50): > 5 µM

Compound | CC50 at 24 h [1] | pIC50 [2, 5] | pEC50 (HIV-1Laï; [6]) | further results
COc1cc2c3c(c1)-c1c(ccc(OC)c1O)CC3N(C)CC2 (stereo not drawn) [Compound 3i] | > 5 µM | < 4.00 | < 5.30 | –
COC(=O)[C@@H]1c2cc3c(c(O)c2[C@@H](O[C@@H]2O[C@@H](C)[C@H](OC)[C@@](C)(OC)[C@H]2OC)C[C@]1(C)O)C(=O)c1c(O)cc2c(c1C3=O)O[C@@H]1O[C@@]2(C)[C@H](O)[C@@H](N(C)C)[C@@H]1O [Compound 1j] | 0.311 µM | 5.05 | – | –
O=C1c2c(O)ccc(O)c2C(=O)c2c(NCCCCCO)ccc(NCCCCCO)c21 [Compound 2k] | – | 4.91 | < 5.30 | CC50 at 24 h [1, 7]: > 5 µM
COc1cc2c(cc1OC)-c1c3c(cc4c1[C@H](C2)N(C)CC4)OCO3 [Compound 3e] | > 5 µM | 4.14 | < 5.30 | –
COc1cccc2c1C(=O)c1c(O)c3c(c(O)c1C2=O)C[C@@](O)(C(=O)CO)C[C@@H]3O[C@H]1C[C@H](N2CCOCC2)[C@H](O)[C@H](C)O1 [NSC354646, reference compound] | – | – | – | inhibition of IN in vitro, in words (HIV-1 IN [3]): micromolar inhibitors
COc1cc2c(c(OC)c1OC)CC1c3c(cc4c(c3-2)OCO4)CCN1C (stereo not drawn) [Compound 3c] | > 5 µM | 4.27 | – | fold decrease in activity compared to NSC785155 ([2]; IC50 ratio): 10 fold
COc1cccc2c1C(=O)c1c(O)c3c(c(O)c1C2=O)CC(O)(C(C)=O)CC3OC1CC(N(C)C)C(O)C(C)O1 (stereo not drawn) [Compound 1o] | 0.256 µM | 4.36 | – | –
COc1ccc2ccccc2c1/C=C/C(=O)c1ccc(OCc2ccccc2)cc1O [Compound 2a] | – | 5.59 | – | CC50 at 24 h [1, 7]: > 5 µM; effect on HIV replication, in words (HIV-1Laï): pro-viral
O=C1CC(c2ccc(O)c(-c3c(O)cc4c(c3O)C(=O)CC(c3ccc(O)cc3)O4)c2)Oc2cc(O)cc(O)c21 (stereo not drawn) [Compound 2c] | – | < 4.00 | – | CC50 at 24 h [1, 7]: > 5 µM
CCOC(OCC)C(=O)OCC(=O)C1(O)Cc2c(O)c3c(c(O)c2C(OC2CC(N)C(O)C(C)O2)C1)C(=O)c1c(OC)cccc1C3=O (stereo not drawn) [Compound 1i] | > 5 µM | 5.09 | – | pEC50 (HIV-1Laï; Human immunodeficiency virus 1, MAGI, 24 h): < 5.30
COc1cc2c3c(cc4ccccc4c3c1O)N(C)CC2 [NSC785168] | – | 4.77 | < 5.30 | CC50 ([1]; 24 h, read-out: CC50): > 5 µM; pIC50 [2, 8]: 5.24; IN-GCN2 interaction (%) [2]: 4.53%
CCC1(O)CC(OC2CC(N(C)C)C(O)C(C)O2)c2c(O)c3c(c(O)c2C1OC1CC(N(C)C)C(O)C(C)O1)C(=O)c1cccc(O)c1C3=O (stereo not drawn) [Compound 1e] | – | – | – | CC50 ([1]; 24 h, read-out: CC50): 0.724 µM; IN-GCN2 interaction (%) [2]: 17.07%
O=C1c2ccccc2C(=O)c2c(NCCNCCO)ccc(O)c21 [Compound 2d] | – | 5.92 | – | CC50 at 24 h [1, 7]: > 5 µM; fold loss of potency at inhibiting ST compared to NSC279836 (HIV-1 IN [4]): around 20 fold; ST activity compared to the DMSO control (HIV-1 IN [4]; increase at lower concentrations): up to 170%; viral replication, maximum, relative to DMSO control (HIV-1Laï): up to 290%
O=C1c2c(O)ccc(O)c2C(=O)c2c(NCCOCCO)ccc(NCCOCCO)c21 [Compound 2g] | > 5 µM | 5.18 | < 5.30 | –
COc1ccc2c(c1OC)-c1c3c(cc4c1C(C2)N(C)CC4)OCO3 (stereo not drawn) [Compound 3j] | > 5 µM | < 4.00 | – | –
CCC1(O)CC(OC2CC(N)C(O)C(C)O2)c2c(O)c3c(c(O)c2C1C(=O)OC)C(=O)c1cccc(O)c1C3=O (stereo not drawn) [Compound 1b] | – | 6.04 | – | CC50 ([1]; 24 h, read-out: CC50): > 5 µM
CCC1(O)CC(OC2CC(N(C)C)C(O)C(C)O2)c2c(cc3c(c2O)C(=O)c2c(O)ccc(O)c2C3=O)C1C(=O)OC (stereo not drawn) [Compound 1c] | – | 5.85 | – | CC50 ([1]; 24 h, read-out: CC50): 0.589 µM
